Measured values taken from the NIST ThermoML archive (doi:10.1016/j.jct.2015.02.009).
Numbers after ± are expanded uncertainties.

Experiment: molar heat capacity at saturation pressure
Details: Vacuum adiabatic calorimetry

SMILES: O=c1c2ccccc2oc2ccccc12 [9H-xanthen-9-one]
- molar heat capacity (146.73 K, Crystal 2): 110.54 ± 0.25 J/K/mol
- molar heat capacity (156.73 K, Crystal 2): 117.13 ± 0.25 J/K/mol
- molar heat capacity (160 K, Crystal 2): 119.31 ± 0.26 J/K/mol
- molar heat capacity (166.81 K, Crystal 2): 123.9 ± 0.26 J/K/mol
- molar heat capacity (176.93 K, Crystal 2): 130.77 ± 0.27 J/K/mol
- molar heat capacity (180 K, Crystal 2): 132.89 ± 0.27 J/K/mol
- molar heat capacity (187.03 K, Crystal 2): 137.78 ± 0.27 J/K/mol
- molar heat capacity (197.16 K, Crystal 2): 144.95 ± 0.28 J/K/mol
- molar heat capacity (200 K, Crystal 2): 146.97 ± 0.28 J/K/mol
- molar heat capacity (207.33 K, Crystal 2): 152.23 ± 0.29 J/K/mol
- molar heat capacity (217.49 K, Crystal 2): 159.6 ± 0.3 J/K/mol
- molar heat capacity (220 K, Crystal 2): 161.45 ± 0.3 J/K/mol
- molar heat capacity (227.64 K, Crystal 2): 167.1 ± 0.31 J/K/mol
- molar heat capacity (237.79 K, Crystal 2): 174.59 ± 0.32 J/K/mol
- molar heat capacity (240 K, Crystal 2): 176.23 ± 0.32 J/K/mol
- molar heat capacity (247 K, Crystal 2): 181.5 ± 0.32 J/K/mol
- molar heat capacity (257.21 K, Crystal 2): 189.32 ± 0.33 J/K/mol
- molar heat capacity (260 K, Crystal 2): 191.47 ± 0.34 J/K/mol
- molar heat capacity (267.43 K, Crystal 2): 197.24 ± 0.34 J/K/mol
- molar heat capacity (271.49 K, Crystal 2): 200.45 ± 0.35 J/K/mol
- molar heat capacity (277.66 K, Crystal 2): 205.34 ± 0.35 J/K/mol
- molar heat capacity (280 K, Crystal 2): 207.28 ± 0.36 J/K/mol
- molar heat capacity (281.58 K, Crystal 2): 208.68 ± 0.36 J/K/mol
- molar heat capacity (285.78 K, Crystal 2): 211.94 ± 0.36 J/K/mol
- molar heat capacity (287.89 K, Crystal 2): 213.62 ± 0.37 J/K/mol
- molar heat capacity (287.93 K, Crystal 2): 213.81 ± 0.37 J/K/mol
- molar heat capacity (290.92 K, Crystal 2): 216.28 ± 0.37 J/K/mol
- molar heat capacity (293.89 K, Crystal 2): 218.7 ± 0.37 J/K/mol
- molar heat capacity (296.84 K, Crystal 2): 221.36 ± 0.37 J/K/mol
- molar heat capacity (298.15 K, Crystal 2): 222.59 ± 0.37 J/K/mol
- molar heat capacity (299.77 K, Crystal 2): 224.22 ± 0.37 J/K/mol
- molar heat capacity (300 K, Crystal 2): 224.32 ± 0.37 J/K/mol
- molar heat capacity (302.68 K, Crystal 2): 226.91 ± 0.37 J/K/mol
- molar heat capacity (304.5 K, Crystal 1): 217.42 ± 0.37 J/K/mol
- molar heat capacity (304.5 K, Crystal 2): 228.82 ± 0.38 J/K/mol
- molar heat capacity (308.54 K, Crystal 1): 220.52 ± 0.37 J/K/mol
- molar heat capacity (314.52 K, Crystal 1): 224.74 ± 0.37 J/K/mol
- molar heat capacity (319.05 K, Crystal 1): 228.22 ± 0.38 J/K/mol
- molar heat capacity (320 K, Crystal 1): 228.78 ± 0.38 J/K/mol
- molar heat capacity (329.4 K, Crystal 1): 234.88 ± 0.39 J/K/mol
- molar heat capacity (339.75 K, Crystal 1): 241.96 ± 0.4 J/K/mol
- molar heat capacity (340 K, Crystal 1): 242.13 ± 0.4 J/K/mol
- molar heat capacity (350.05 K, Crystal 1): 248.91 ± 0.41 J/K/mol
- molar heat capacity (360 K, Crystal 1): 255.59 ± 0.41 J/K/mol
- molar heat capacity (360.25 K, Crystal 1): 255.74 ± 0.42 J/K/mol
- molar heat capacity (370.5 K, Crystal 1): 262.7 ± 0.42 J/K/mol
- molar heat capacity (380 K, Crystal 1): 269.01 ± 0.42 J/K/mol
- molar heat capacity (380.94 K, Crystal 1): 269.61 ± 0.42 J/K/mol
- molar heat capacity (391.39 K, Crystal 1): 276.39 ± 0.43 J/K/mol
- molar heat capacity (400 K, Crystal 1): 281.96 ± 0.44 J/K/mol
- molar heat capacity (401.81 K, Crystal 1): 283.12 ± 0.44 J/K/mol
- molar heat capacity (403.54 K, Crystal 1): 284.25 ± 0.45 J/K/mol
- molar heat capacity (411.03 K, Crystal 1): 289 ± 0.45 J/K/mol
- molar heat capacity (412.19 K, Crystal 1): 289.73 ± 0.45 J/K/mol
- molar heat capacity (416.69 K, Crystal 1): 292.58 ± 0.46 J/K/mol
- molar heat capacity (419.61 K, Crystal 1): 294.44 ± 0.46 J/K/mol
- molar heat capacity (420 K, Crystal 1): 294.67 ± 0.46 J/K/mol
- molar heat capacity (422.49 K, Crystal 1): 296.32 ± 0.46 J/K/mol
- molar heat capacity (426.25 K, Crystal 1): 298.77 ± 0.47 J/K/mol
- molar heat capacity (426.89 K, Crystal 1): 299.05 ± 0.47 J/K/mol
- molar heat capacity (428.37 K, Crystal 1): 300.06 ± 0.47 J/K/mol
- molar heat capacity (432.6 K, Crystal 1): 302.78 ± 0.47 J/K/mol
- molar heat capacity (434.54 K, Crystal 1): 304.24 ± 0.47 J/K/mol
- molar heat capacity (436.39 K, Crystal 1): 305.61 ± 0.47 J/K/mol
- molar heat capacity (436.87 K, Crystal 1): 305.89 ± 0.47 J/K/mol
- molar heat capacity (437 K, Crystal 1): 305.66 ± 0.47 J/K/mol
- molar heat capacity (438.34 K, Crystal 1): 306.66 ± 0.47 J/K/mol
- molar heat capacity (440 K, Crystal 1): 307.81 ± 0.47 J/K/mol
- molar heat capacity (441.53 K, Crystal 1): 308.59 ± 0.47 J/K/mol
- molar heat capacity (444.48 K, Crystal 1): 310.76 ± 0.47 J/K/mol
- molar heat capacity (448.8 K, Crystal 1): 313.35 ± 0.48 J/K/mol
- molar heat capacity (448.8 K, Liquid): 352.72 ± 0.52 J/K/mol
- molar heat capacity (456.71 K, Liquid): 355.95 ± 0.53 J/K/mol
- molar heat capacity (456.82 K, Liquid): 356.07 ± 0.53 J/K/mol
- molar heat capacity (456.9 K, Liquid): 356.08 ± 0.53 J/K/mol
- molar heat capacity (460 K, Liquid): 357.33 ± 0.53 J/K/mol
- molar heat capacity (465.07 K, Liquid): 359.58 ± 0.53 J/K/mol
- molar heat capacity (465.9 K, Liquid): 359.81 ± 0.53 J/K/mol
- molar heat capacity (476.6 K, Liquid): 364.34 ± 0.54 J/K/mol
- molar heat capacity (480 K, Liquid): 365.74 ± 0.54 J/K/mol
- molar heat capacity (488.56 K, Liquid): 369.25 ± 0.55 J/K/mol
- molar heat capacity (497.53 K, Liquid): 372.95 ± 0.55 J/K/mol
- molar heat capacity (500 K, Liquid): 374.07 ± 0.55 J/K/mol
- molar heat capacity (500.95 K, Liquid): 374.47 ± 0.55 J/K/mol
- molar heat capacity (512.38 K, Liquid): 379.19 ± 0.56 J/K/mol
- molar heat capacity (520 K, Liquid): 382.26 ± 0.57 J/K/mol
- molar heat capacity (521.08 K, Liquid): 382.68 ± 0.57 J/K/mol
